Reference: article PMC5931475, “Deciphering the molecular determinants of cholinergic anthelmintic sensitivity in nematodes: When novel functional validation approaches highlight major differences between the model Caenorhabditis elegans and parasitic species” (PLoS Pathogens, 2018)

Assays:
[1] = molecular target: T1, composite Cel-L-AChR with Dim-ACR-8 (29/38/63/L1 + Dim-ACR-8); assay: two-electrode voltage clamp, Xenopus oocytes; assay type: cell-based, Caenorhabditis elegans; Dirofilaria immitis; conditions: read-out: Lev EC50; agonist; responses normalized to 100 μM ACh
T1 construct: mixed-species complex of whole subunits; cRNA in Xenopus laevis oocytes with C. elegans RIC-3, UNC-50, UNC-74; LEV-8 replaced by D. immitis ACR-8
T1 sequence (A0A2I6TEL0 22-518): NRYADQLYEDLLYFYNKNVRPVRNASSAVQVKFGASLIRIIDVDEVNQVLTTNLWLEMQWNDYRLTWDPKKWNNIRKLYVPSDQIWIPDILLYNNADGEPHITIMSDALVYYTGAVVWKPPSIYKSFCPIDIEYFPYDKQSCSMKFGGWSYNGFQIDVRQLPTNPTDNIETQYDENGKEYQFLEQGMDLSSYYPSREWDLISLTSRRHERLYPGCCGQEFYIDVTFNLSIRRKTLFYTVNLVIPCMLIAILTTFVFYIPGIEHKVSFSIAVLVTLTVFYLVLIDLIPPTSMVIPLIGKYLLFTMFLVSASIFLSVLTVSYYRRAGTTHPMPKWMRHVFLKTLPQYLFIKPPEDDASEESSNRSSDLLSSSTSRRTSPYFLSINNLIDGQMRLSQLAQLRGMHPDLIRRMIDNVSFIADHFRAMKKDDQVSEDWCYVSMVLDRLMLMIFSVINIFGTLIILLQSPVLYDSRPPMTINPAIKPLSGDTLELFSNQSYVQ
T1 sequence (Q23022 17-511, further chain): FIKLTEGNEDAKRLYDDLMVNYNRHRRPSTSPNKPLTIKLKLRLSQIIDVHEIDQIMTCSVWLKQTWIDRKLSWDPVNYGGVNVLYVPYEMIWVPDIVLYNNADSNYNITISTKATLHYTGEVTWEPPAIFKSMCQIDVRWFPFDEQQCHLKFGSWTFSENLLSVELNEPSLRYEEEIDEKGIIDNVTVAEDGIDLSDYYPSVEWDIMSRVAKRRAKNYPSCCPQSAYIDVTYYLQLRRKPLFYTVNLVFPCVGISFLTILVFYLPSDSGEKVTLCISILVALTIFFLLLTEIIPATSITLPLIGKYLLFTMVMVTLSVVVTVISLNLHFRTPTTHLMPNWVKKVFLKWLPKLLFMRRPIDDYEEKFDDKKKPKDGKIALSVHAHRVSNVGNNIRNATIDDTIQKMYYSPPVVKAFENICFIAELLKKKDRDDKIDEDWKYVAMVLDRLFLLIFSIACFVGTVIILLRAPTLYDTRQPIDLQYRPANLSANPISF
T1 sequence (Q9N587 24-502, further chain): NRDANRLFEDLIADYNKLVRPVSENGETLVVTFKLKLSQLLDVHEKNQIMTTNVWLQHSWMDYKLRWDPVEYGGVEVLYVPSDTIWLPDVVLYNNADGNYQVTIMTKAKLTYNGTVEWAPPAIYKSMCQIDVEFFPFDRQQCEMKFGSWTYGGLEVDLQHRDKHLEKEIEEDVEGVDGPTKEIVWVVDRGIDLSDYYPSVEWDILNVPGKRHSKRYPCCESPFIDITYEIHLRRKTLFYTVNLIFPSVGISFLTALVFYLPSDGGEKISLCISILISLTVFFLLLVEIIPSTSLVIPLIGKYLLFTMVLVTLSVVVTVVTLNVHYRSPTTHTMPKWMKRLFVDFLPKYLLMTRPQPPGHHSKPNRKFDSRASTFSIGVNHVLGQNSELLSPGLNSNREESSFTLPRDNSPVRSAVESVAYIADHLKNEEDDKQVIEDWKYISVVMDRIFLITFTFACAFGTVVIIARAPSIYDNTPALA
T1 sequence (P48181 27-493, further chain): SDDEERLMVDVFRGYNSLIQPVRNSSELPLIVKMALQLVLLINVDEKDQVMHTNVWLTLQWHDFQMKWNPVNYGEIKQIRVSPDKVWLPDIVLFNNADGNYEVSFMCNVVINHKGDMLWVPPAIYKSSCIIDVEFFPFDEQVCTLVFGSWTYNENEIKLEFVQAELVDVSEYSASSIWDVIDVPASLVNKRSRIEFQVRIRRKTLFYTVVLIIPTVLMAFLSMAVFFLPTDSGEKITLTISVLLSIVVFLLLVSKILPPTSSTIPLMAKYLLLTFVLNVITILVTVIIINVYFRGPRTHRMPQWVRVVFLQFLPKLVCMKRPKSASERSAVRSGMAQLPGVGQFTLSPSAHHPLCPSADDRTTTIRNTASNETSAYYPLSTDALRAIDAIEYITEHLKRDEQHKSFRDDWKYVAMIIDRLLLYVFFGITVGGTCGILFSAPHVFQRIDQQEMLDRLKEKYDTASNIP
T1 sequence (Q27218 32-507, further chain): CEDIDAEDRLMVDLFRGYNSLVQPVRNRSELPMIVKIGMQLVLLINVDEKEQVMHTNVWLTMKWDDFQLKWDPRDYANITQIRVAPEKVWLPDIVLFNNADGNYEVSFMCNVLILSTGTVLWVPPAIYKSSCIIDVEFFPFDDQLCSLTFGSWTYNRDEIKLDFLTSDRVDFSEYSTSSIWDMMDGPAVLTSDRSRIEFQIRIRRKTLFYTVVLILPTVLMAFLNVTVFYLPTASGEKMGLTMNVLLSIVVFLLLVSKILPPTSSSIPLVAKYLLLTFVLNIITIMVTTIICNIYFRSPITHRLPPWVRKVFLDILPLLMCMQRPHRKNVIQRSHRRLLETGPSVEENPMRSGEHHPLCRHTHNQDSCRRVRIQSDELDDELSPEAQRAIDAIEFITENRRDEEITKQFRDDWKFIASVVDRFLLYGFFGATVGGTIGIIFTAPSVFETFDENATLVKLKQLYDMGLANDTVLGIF

[2] = system: T1, composite Cel-L-AChR with Dim-ACR-8 (29/38/63/L1 + Dim-ACR-8); design: species or system Xenopus laevis oocytes; Agonist-evoked currents in cRNA-injected oocytes, concentration-response normalized to 100 uM ACh; conditions: Imax as % of 100 uM ACh response; agonist

SMILES: c1ccc([C@H]2CN3CCSC3=N2)cc1 [levamisole]
- EC50 [1]: 5.9 ± 1.3 µM
- Lev Imax [2]: 29.0 ±1.2%
